Data as given in patent US20080219998A1, “Anti-Thrombotic Agents” (priority 2001, published 2008).
No end group written: not given here.

Test system: intrinsic pathway
Assay: activated partial thromboplastin time (APTT) screening coagulation assay
Assay type: biochemical
Details: phage expressing the peptide tested; APTT is a standard screening marker of the activity of the intrinsic pathway
Excerpt: While in vitro or animal testing are not acceptable tools for establishing the safety thus usefulness of drugs, such as anticoagulants, screening compounds for specificity towards factor XI, thus potential utility in the clinic, is an necessary intermediate step in practicing this invention. In such an effort, several FXI-specific peptides have been created using standard phage display technology. […] One example of such a phage is given here. Amino acid sequencing of the peptide expressed by this phage yields Gln-Lys-Met-Gln-His-Gly-Ile-Trp-Asn-Arg-Thr-Ala using standard technology. The phage expressing the peptide is then tested in screening coagulation assays, such as activated partial thromboplastin time (APTT) and prothrombin time (PT). […] This peptide, and other inhibitory compounds with FXI specificity, such as Gln-Gln-Val-Ala-Asn-Trp-Ser-Met-Ser-Pro-Ala, are considered only as examples of intermediate steps in identifying and preparing compounds of this invention that can exclusively reduce FXI activity. Other methods of screening exist.

QKMQHGIWNRTA [FXI-specific peptide from phage display, tested as the phage expressing it]
prolongation of APTT: significant prolongation
